Measured values from article PMC9030254, “Target Hopping from Protein Kinases to PXR: Identification of Small-Molecule Protein Kinase Inhibitors as Selective Modulators of Pregnane X Receptor from TüKIC Library” (Cells, 2022).

Experiments:
Assay in all cases: Kinase profiling
Assay type in all cases: biochemical
FES = target: T1, FES (Homo sapiens, UniProt P07332)
T1 construct: purchased ProQinase (Freiburg, Germany)
Protocol: (§1) The analysis was performed by ProQinase (Freiburg, Germany).

CDK4/CycD3 = target: T2, CDK4/CycD3 (Homo sapiens, UniProt P11802)
T2 construct: purchased ProQinase (Freiburg, Germany)
Protocol: as §1

SIK3 = target: T3, SIK3 (Homo sapiens, UniProt Q9Y2K2)
T3 construct: purchased ProQinase (Freiburg, Germany)
Protocol: as §1

SAK = target: T4, SAK (Homo sapiens, UniProt O00444)
T4 construct: purchased ProQinase (Freiburg, Germany)
T4 sequence (O00444 1-970): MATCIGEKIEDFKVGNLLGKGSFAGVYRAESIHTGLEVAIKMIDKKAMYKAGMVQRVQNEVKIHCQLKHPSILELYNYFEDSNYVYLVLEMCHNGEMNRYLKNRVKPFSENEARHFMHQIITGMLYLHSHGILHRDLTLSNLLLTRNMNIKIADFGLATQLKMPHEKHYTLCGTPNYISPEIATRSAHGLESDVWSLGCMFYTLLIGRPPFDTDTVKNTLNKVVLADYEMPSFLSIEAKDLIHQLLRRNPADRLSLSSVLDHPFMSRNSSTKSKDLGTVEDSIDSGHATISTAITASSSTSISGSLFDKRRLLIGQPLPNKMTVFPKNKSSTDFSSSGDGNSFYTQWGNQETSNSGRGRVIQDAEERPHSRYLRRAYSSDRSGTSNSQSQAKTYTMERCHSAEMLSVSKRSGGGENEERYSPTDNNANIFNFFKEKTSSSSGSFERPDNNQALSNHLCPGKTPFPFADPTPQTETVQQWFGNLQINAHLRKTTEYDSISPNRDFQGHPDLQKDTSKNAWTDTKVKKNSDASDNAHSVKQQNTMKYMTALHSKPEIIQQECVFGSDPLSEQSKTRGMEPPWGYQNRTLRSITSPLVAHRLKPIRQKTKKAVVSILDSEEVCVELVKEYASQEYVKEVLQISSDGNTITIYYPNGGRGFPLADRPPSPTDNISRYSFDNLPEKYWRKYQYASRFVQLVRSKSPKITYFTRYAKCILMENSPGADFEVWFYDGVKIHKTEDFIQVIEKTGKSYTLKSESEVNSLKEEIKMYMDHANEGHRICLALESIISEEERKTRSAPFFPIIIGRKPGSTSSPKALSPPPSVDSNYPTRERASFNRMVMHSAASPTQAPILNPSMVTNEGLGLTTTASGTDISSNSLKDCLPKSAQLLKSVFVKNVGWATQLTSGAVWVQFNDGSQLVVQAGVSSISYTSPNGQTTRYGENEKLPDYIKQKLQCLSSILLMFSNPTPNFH
Protocol: as §1

MEKK2 = target: T5, MEKK2 (Homo sapiens, UniProt Q9Y2U5)
T5 construct: purchased ProQinase (Freiburg, Germany)
T5 sequence (Q9Y2U5 1-619): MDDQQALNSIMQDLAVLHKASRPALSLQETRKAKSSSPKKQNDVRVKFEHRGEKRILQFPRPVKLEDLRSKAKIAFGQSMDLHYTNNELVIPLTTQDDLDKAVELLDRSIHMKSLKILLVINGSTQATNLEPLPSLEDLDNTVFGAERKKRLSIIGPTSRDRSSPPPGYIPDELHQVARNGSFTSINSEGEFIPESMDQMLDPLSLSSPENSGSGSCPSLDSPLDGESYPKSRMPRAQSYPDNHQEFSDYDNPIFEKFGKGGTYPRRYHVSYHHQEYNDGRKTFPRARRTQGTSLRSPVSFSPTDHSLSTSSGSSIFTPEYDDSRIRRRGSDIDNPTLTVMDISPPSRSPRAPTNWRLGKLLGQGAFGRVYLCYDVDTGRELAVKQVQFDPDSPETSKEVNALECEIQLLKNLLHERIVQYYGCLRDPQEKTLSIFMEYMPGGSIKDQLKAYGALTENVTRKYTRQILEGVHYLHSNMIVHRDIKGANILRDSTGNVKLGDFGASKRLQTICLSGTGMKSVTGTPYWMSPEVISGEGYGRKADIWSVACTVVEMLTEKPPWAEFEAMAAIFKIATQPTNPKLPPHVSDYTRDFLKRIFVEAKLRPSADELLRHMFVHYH
Protocol: as §1

MARK4 = target: T6, MARK4 (Homo sapiens, UniProt Q96L34)
T6 construct: purchased ProQinase (Freiburg, Germany)
T6 sequence (Q96L34 1-752): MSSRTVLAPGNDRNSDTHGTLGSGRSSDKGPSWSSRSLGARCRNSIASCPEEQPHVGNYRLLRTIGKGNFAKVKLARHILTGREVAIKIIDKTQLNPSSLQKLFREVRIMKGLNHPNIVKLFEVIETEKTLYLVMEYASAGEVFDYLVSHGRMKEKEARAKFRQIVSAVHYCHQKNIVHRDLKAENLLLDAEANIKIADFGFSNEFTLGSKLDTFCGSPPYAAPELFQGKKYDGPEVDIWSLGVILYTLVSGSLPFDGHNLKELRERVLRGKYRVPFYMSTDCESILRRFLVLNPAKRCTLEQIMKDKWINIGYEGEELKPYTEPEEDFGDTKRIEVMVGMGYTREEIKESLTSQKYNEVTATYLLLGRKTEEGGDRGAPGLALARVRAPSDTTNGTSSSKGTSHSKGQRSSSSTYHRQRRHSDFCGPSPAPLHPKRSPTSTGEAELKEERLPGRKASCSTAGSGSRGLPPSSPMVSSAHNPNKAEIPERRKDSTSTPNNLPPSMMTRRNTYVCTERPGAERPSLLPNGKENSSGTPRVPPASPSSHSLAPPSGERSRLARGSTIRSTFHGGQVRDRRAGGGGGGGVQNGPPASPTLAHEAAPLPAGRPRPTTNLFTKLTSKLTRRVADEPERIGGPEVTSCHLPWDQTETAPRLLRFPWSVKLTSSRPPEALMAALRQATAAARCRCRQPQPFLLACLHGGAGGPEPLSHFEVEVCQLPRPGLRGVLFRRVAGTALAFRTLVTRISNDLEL
Protocol: as §1

CLK1 = target: T7, CLK1 (Homo sapiens, UniProt P49759)
T7 construct: purchased ProQinase (Freiburg, Germany)
Protocol: as §1

INSR = target: T8, INSR (Homo sapiens, UniProt P06213)
T8 construct: purchased ProQinase (Freiburg, Germany)
Protocol: as §1

T1 sequence (P07332 whole entry): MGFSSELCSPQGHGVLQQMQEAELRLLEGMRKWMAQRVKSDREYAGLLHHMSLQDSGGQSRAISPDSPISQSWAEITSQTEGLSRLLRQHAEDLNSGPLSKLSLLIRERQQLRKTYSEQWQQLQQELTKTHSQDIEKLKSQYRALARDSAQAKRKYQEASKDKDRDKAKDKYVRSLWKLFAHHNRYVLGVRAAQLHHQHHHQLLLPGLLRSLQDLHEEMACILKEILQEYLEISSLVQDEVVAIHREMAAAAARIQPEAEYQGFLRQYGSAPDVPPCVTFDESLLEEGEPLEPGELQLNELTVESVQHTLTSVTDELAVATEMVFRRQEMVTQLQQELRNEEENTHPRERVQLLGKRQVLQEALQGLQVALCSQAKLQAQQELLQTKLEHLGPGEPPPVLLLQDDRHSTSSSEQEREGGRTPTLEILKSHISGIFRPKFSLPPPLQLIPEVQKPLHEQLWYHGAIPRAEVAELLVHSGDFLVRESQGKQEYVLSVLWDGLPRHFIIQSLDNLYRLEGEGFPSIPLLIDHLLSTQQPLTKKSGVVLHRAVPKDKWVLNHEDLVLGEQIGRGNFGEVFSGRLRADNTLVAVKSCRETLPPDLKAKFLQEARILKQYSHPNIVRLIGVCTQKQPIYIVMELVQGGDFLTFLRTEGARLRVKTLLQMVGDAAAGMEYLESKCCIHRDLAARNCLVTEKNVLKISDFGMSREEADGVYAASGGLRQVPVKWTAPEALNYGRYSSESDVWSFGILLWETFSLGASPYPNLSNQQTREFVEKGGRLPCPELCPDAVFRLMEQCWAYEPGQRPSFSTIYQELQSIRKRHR
T2 sequence (P11802 whole entry): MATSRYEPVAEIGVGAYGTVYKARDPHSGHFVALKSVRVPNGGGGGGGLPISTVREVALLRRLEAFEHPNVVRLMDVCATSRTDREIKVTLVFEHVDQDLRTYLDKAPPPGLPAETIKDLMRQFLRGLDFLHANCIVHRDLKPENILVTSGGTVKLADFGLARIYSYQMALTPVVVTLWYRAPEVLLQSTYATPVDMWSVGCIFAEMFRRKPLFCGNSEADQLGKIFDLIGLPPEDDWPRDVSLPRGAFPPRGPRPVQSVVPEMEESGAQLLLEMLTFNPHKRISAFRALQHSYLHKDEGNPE
T2 sequence (P30281 whole entry partner): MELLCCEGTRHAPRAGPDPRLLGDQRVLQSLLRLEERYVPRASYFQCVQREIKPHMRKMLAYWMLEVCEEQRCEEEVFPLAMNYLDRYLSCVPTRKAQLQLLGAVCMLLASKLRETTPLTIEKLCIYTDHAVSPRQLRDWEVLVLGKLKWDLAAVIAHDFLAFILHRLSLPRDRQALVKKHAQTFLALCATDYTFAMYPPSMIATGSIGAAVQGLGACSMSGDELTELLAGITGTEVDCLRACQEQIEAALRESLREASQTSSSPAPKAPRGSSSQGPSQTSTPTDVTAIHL
T8 sequence (P06213 28-1382): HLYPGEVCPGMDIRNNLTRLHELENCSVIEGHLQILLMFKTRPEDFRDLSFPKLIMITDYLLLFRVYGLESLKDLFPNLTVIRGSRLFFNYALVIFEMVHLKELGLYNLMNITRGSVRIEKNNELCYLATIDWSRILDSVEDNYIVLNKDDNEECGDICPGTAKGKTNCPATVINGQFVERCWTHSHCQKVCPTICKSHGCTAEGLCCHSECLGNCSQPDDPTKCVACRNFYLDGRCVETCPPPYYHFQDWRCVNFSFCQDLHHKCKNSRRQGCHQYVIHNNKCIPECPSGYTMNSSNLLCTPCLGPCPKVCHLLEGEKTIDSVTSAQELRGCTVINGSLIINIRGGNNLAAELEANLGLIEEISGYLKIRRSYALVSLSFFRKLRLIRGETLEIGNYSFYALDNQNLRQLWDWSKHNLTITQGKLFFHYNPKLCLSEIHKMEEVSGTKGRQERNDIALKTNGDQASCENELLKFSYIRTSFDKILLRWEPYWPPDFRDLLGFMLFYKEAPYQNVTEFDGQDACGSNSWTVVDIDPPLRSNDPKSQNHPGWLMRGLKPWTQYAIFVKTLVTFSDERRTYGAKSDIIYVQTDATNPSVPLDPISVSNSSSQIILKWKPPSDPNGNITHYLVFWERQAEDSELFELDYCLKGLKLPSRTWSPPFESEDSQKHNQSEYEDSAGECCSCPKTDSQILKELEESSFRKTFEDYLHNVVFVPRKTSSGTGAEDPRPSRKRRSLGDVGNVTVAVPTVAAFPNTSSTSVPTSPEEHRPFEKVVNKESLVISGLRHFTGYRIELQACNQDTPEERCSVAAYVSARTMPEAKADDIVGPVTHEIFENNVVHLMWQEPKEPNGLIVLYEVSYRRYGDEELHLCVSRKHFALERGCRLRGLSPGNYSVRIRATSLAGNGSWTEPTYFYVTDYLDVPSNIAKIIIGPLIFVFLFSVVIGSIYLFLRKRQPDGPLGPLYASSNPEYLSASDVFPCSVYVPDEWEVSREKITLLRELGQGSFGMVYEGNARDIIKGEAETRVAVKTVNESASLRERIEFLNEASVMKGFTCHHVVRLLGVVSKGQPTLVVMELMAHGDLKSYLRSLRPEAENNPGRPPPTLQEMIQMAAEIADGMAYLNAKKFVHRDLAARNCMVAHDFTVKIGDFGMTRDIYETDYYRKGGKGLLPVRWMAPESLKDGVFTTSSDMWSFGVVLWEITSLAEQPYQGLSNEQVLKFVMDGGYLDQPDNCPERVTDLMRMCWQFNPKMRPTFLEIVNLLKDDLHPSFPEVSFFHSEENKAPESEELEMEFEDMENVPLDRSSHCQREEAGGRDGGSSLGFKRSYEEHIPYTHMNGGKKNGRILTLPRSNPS
T7 sequence (P49759 whole entry): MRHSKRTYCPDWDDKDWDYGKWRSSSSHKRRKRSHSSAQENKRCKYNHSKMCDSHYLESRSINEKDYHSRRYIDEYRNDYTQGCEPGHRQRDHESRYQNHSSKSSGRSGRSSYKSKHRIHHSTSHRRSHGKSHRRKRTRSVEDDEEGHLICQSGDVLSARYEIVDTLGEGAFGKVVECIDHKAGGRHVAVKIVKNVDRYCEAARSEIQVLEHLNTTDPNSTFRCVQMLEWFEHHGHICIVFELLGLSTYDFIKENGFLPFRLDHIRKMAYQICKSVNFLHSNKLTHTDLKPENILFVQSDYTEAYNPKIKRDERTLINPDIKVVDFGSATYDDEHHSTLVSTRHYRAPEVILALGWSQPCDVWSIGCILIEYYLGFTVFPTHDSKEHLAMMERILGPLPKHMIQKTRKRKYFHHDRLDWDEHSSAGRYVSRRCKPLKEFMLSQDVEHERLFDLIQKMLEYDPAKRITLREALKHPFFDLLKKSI
T3 sequence (Q9Y2K2 whole entry): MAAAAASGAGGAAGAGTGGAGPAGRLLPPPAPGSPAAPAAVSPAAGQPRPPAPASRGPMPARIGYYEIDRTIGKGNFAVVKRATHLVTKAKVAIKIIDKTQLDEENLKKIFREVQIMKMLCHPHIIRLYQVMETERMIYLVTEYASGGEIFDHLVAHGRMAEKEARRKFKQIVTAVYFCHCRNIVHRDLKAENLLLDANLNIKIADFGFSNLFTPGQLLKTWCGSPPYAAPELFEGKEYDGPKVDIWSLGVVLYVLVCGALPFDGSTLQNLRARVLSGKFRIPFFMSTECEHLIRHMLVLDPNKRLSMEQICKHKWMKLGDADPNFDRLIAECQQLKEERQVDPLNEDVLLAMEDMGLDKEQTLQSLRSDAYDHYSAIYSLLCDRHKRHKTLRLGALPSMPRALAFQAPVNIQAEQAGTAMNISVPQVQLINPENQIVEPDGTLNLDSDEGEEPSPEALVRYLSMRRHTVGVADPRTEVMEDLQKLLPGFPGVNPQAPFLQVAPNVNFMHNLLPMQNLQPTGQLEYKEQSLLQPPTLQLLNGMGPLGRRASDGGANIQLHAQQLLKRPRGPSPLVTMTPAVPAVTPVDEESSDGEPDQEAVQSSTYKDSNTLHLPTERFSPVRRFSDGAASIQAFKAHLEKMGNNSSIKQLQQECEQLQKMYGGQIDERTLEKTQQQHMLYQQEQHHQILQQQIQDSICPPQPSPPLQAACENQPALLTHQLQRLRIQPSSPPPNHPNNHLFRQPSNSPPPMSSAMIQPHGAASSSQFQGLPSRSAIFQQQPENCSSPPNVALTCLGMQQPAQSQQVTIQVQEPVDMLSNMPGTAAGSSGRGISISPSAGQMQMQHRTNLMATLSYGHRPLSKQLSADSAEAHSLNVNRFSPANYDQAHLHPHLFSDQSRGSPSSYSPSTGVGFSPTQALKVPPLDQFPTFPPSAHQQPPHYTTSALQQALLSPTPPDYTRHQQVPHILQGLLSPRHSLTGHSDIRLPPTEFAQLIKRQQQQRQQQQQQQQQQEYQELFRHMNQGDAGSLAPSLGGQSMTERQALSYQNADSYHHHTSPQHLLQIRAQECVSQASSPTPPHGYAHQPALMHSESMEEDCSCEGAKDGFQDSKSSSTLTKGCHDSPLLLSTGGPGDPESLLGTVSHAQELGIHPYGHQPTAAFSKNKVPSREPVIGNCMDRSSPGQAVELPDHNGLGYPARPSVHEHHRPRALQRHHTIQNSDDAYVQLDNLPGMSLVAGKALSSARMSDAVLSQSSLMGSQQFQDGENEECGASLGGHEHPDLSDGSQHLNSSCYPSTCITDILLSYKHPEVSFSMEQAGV

## O=C(Cc1ccccc1)Nc1ccc(F)c(Nc2ccc3c(c2)CCCCC3=O)c1 [Compound 100]
FES; 1.0E-05 M
  Residual activity: 67 % of control
FES; 1.0E-06 M
  Residual activity: 81 % of control
CDK4/CycD3; 1.0E-05 M
  Residual activity: 89 % of control
CDK4/CycD3; 1.0E-06 M
  Residual activity: 93 % of control
SIK3; 1.0E-05 M
  Residual activity: 87 % of control
SIK3; 1.0E-06 M
  Residual activity: 95 % of control
SAK; 1.0E-05 M
  Residual activity: 81 % of control
SAK; 1.0E-06 M
  Residual activity: 92 % of control
MEKK2; 1.0E-05 M
  Residual activity: 108 % of control
MEKK2; 1.0E-06 M
  Residual activity: 108 % of control
MARK4; 1.0E-05 M
  Residual activity: 94 % of control
MARK4; 1.0E-06 M
  Residual activity: 99 % of control
CLK1; 1.0E-05 M
  Residual activity: 79 % of control
CLK1; 1.0E-06 M
  Residual activity: 99 % of control
INSR; 1.0E-05 M
  Residual activity: 92 % of control
INSR; 1.0E-06 M
  Residual activity: 95 % of control

## O=C(Nc1ccc(F)c(Nc2ccc3c(c2)CCCCC3=O)c1)c1cccc(F)c1 [Compound 109]
FES; 1.0E-05 M
  Residual activity: 90 % of control
FES; 1.0E-06 M
  Residual activity: 79 % of control
CDK4/CycD3; 1.0E-05 M
  Residual activity: 89 % of control
CDK4/CycD3; 1.0E-06 M
  Residual activity: 94 % of control
SIK3; 1.0E-05 M
  Residual activity: 99 % of control
SIK3; 1.0E-06 M
  Residual activity: 96 % of control
SAK; 1.0E-05 M
  Residual activity: 71 % of control
SAK; 1.0E-06 M
  Residual activity: 89 % of control
MEKK2; 1.0E-05 M
  Residual activity: 101 % of control
MEKK2; 1.0E-06 M
  Residual activity: 99 % of control
MARK4; 1.0E-05 M
  Residual activity: 91 % of control
MARK4; 1.0E-06 M
  Residual activity: 102 % of control
CLK1; 1.0E-05 M
  Residual activity: 96 % of control
CLK1; 1.0E-06 M
  Residual activity: 105 % of control
INSR; 1.0E-05 M
  Residual activity: 84 % of control
INSR; 1.0E-06 M
  Residual activity: 95 % of control
